Measured values: US6015877A, “Compounds for inhibition of proteolysis” (President and Fellows of Harvard College, priority 1996, dated 2000)
Where two headings read alike, the source gives them in different places. Each block holds one compound with its values, some of them ahead of it. Where no end group is shown, it is not given here. The star is where a group is joined. Farnesyl = CC(C)=CCC/C(C)=C/CC/C(C)=C/C*

Key:
[1] = target: T1, cysteine protease ICE (interleukin-1β converting enzyme) (Homo sapiens, UniProt P29466); conditions: cited from earlier work
T1 sequence (P29466 120-297 limits assumed): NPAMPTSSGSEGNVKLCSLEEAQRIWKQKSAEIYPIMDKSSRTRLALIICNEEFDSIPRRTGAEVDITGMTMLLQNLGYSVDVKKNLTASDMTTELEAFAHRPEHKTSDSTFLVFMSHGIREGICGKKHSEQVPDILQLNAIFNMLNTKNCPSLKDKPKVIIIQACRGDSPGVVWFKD
T1 sequence (P29466 317-404 limits assumed): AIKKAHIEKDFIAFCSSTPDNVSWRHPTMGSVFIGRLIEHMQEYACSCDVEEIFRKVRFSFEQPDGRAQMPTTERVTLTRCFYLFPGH

[2] = test system: isoprenylated protein endoprotease; experiment: Inhibition of the solubilized / partially purified enzyme by non-halomethyl ketone inhibitors; type: biochemical, bovine
[3] = target: T2, cysteine protease apopain (Homo sapiens, UniProt P42574); conditions: cited from earlier work
T2 sequence (P42574 29-175 limits assumed): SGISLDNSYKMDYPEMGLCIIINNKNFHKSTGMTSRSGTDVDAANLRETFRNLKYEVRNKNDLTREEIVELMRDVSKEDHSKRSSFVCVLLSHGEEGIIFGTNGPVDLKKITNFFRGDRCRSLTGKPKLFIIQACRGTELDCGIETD
T2 sequence (P42574 176-277 limits assumed): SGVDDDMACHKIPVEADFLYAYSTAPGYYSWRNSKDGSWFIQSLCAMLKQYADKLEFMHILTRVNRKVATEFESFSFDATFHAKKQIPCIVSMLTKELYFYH

[4] = test system: second small proteolytic activity, apparent molecular mass approximately 60 kDa; experiment: Inhibition of the second small peak of proteolytic activity (approximately 60 kDa) after gel filtration; type: biochemical, bovine
Description: These properties of CHAPSO make it ideal, among the detergents tested, for the solubilization of the endoprotease. […] It should be noted that a second small amount of proteolytic activity was also found with an apparent molecular mass of approximately 60 kDa, which amounted to approximately 10% of the major peak, but which chromatographed at a smaller molecular size than the major peak. This smaller peak was not investigate further, for several reasons. Quantitatively, it is not significant. […] It also is no known if the smaller peak of activity i s comprised of an endoproteolytic activity or is simply made up of nonspecific proteases. […] All further studies described here will be relevant to the major solubilized peak of activity.

[5] = test system: isoprenylated protein endoprotease; experiment: Inhibition of the isoprenylated protein endoprotease by halomethyl ketones (preincubation, 20-fold dilution, Kitz-Wilson); type: biochemical, bovine; conditions: for Ki: read-out: K1
Method: A typical procedure of inhibition is given here to illustrate the details of this procedure. A CHAPSO-solubilized protein preparation (2.5 mg/mL) or a partially […] protein preparation (0.17 mg/mL) was incubated with chloromethyl ketone inhibitors at 37° C. for 30 minutes. Aliquots were removed at timed intervals and diluted with assay buffer E for the solubilized preparation of with assay buffer D for the partially purified protein preparation in 20-fold. The final protein and substrate concentrations were 0.12 mg/mL (or 8.5 μg of partially purified protein preparation per milliliter) and 2.0 μM, respectively, except as otherwise noted; the residual enzyme activity was assayed as described above. TPCK and BFC-CMK were characterized by kinetic measurements. The bimolecular rate constant Kinh /K1 and pseudo-first-order kinetic rate constant Kinh were obtained using the Kitz-Wilson method (Kitz & Wilson, 1962). According to Kitz-Wilson method, the irreversible modification of an enzyme by an active-site directed inhibitor is given by [drawing 9] where K1 =[E]·[I]/[E·I] and -d([E]+[E·I])/dt=Kinh [E·I]. [I] and [E] are inhibitor and enzyme concentrations at a certain time, respectively. Under conditions here [I]>>[Eo ], which is the enzyme concentration at time zero, [I] is constant. Under conditions where the enzyme-inhibitor solution is extensively diluted before the assay, a simplified equation 2 can be obtained as follows: […]
To further establish the specificity of the inactivation process, several commercially available haloketones were studies as putative inactivators of the endoprotease. The structures of these analogs are shown and their activities are shown in Table V. In these studies, the solubilized protein material was preincubated with a chloromethyl ketone inhibitor at 284 μM (unless otherwise noted) for 30 minutes; then 2.5-μL aliquots of the incubated solution were taken and diluted 20-fold for assay of the residual enzyme activity. […] Save for the dipeptide derivatives (ZGGFCMK and ZAPFCMK) derived from TPCK, the other halomethyl ketones tested are virtually inert.
FIG. 16(A) Time-dependent inhibition. 16B Kitz-Wilson plot (the upper panel) for the inhibition of the isoprenylated protein endoprotease by TPCK. The inhibition studies were carried out at 37° C. using the solubilized endoprotease preparation. Aliquote of the inhibitor-enzyme solution were taken at interval times and diluted by a factor of 20, and the enzyme activity was assayed as described in Methods. (B) (the lower panel) the concentration-dependent inhibition of the endoprotease by TPCK. The inhibition studies were carried out at 37° C. The crude CHAPSO-solubilized endoprotease preparations (0.12 mg/mL) were preincubated for 60 min in 50 μL of buffer E in the presence of 284 μM TPCK or TLCK with 6% DMSO and 2% 2-propanol. After the incubation, the reaction solution was diluted by a factor of 20, and the remaining enzyme activity of the inhibitor-enzyme solution was assayed as described in Methods. Data were represented in mean from duplicate runs.

[6] = test system: protease of bovine liver microsomal membranes (isoprenylated protein endoprotease); experiment: Inhibition of proteolysis of [3H]-AFC-val-ile-ser by peptides, calf liver microsomes; type: biochemical
Method: As expected, the proteolysis of [^3 H]-AFC-val-ile-ser or [^3 H]-(SEQ ID NO: 1) was inhibited by the dipeptide substrate (AFC-val) and by the tripeptide substrate (AFC-val-ile). Incubation of 4 μM substrate along with either 20 μM of the dipeptide or tripeptide led to an approximately 50% diminution in substrate cleavage.

[7] = test system: protease of bovine liver microsomal membranes (isoprenylated protein endoprotease); experiment: Proteolysis of N-[3H]acetyl isoprenylated peptide substrates by calf liver microsomal membranes (N-[3H]-AFC formation, HPLC)
[8] = test system: stereospecific proteolytic enzymatic activity in dog pancreatic microsomes; experiment: Proteolysis of tetrapeptide substrates by dog pancreatic microsomes; type: biochemical; conditions: extended incubation conditions
Method: A similar stereospecific proteolytic enzymatic activity was also found in dog pancreatic microsomes. Under extended incubation conditions, where 54% of the tetrapeptide substrate 1 was cleaved by these microsomes, no proteolysis of D-AFC-val-ile-ser 2 could be detected (<1%).

[9] = test system: isoprenylated protein endoprotease; conditions: 425 ng partially purified protein preparation in 50 μL
[10] = solubilized endoprotease preparation, 37° C., Kitz-Wilson
[11] = Table 1, same enzyme preparation, average of two determinations ±S.D.
[12] = calf liver microsomal membranes
[13] = former measurement, different microsome preparation from a different animal

inhibition of the endoprotease (in words) ([2]; 0.5 mM): insensitive
enzyme activity (%) detergent extract ([2]; inhibitor 0.11 mM, control 100): 113 ± 0%
enzyme activity (%) partially purified ([2]; inhibitor 0.5 mM, control 100): 103 ± 4%
Compound: CC(C)C[C@H](NC(=O)[C@H]1O[C@@H]1C(=O)O)C(=O)NCCCCN=C(N)N (relative stereo) [E-64, N-[N-(L-3-trans-carboxyoxiran-2-carbonyl)-L-leucyl]agmatine]
inhibition of ICE (in words) [1]: insensitive
inhibition of apopain (in words) [3]: not

inhibition of the endoprotease (in words) ([2]; 1 mM): not inhibited
enzyme activity (%) detergent extract ([2]; inhibitor 1 mM, control 100): 90 ± 10%
Compound: c1cnc2c(c1)ccc1cccnc12 [1,10-.phi., N,N'-phenanthroline]
effect on the major (primary) solubilized peak of activity (in words) ([2]; CHAPSO-solubilized enzyme after gel filtration): without effect on the primary peak of activity
inhibition of the smaller peak of proteolytic activity (in words) [4]: potently inhibited

Compound: NC(=O)CI [IAA, iodoacetamide]
inhibition of ICE (in words) [1]: inactivated
inhibition of the endoprotease (in words) ([2]; 0.4 mM): insensitive
inhibition of apopain (in words) [3]: inhibited

Compound: Cc1ccc(S(=O)(=O)N[C@@H](Cc2ccccc2)C(=O)CCl)cc1 [TPCK, Nα-tosyl-L-phenylalamine chloromethyl ketone]
inhibition of ICE (in words) [1]: inactivated
inhibition of apopain (in words) [3]: not
enzyme activity (%) ([5]; 284 μM inhibitor, solubilized protein preincubated 30 minutes, diluted 20-fold, control 100): 43 ± 5%
regeneration of enzyme activity after gel filtration chromatography and 24-h dialysis (in words) ([5]; enzyme preincubated with TPCK): not regenerated
Ki [5]: ~1000 µM
inhibition / inactivation of the endoprotease (in words) ([5]; solubilized endoprotease): inhibit the endoprotease well
Kinh (s^-1) [5, 10]: (1.4 ± 0.6) × 10^-3 s^-1
Kinh /K1 [5, 10]: 1.28 ± 0.1 M⁻¹ s⁻¹
Ki [5, 10]: 1100 ± 500 µM

Compound: AC-val-ile-ser: tetrapeptide substrate with the farnesyl moiety deleted (Ac-CVIS)
inhibition of tetrapeptide substrate processing (in words) ([6]; 5-fold excess over tetrapeptide substrate): did not interfere with the processing of the substrate

Km [7, 12]: 9.2 ± 0.21 µM
Km [7, 13]: 12.6 µM
Compound: N-Ac-S-all-trans-farnesyl-L-Cys-L-Val-L-Ile [AFC--Val--Ile (1)]
Vmax [7, 11]: 57.7 ± 5 pmol/min/mg
Vmax [7, 12]: 58 ± 4.9 pmol/min/mg
substrate activity (in words) [7, 12]: substrates for the enzyme
Vmax [7, 13]: 65.6 pmol/min/mg
diminution in substrate cleavage ([6]; 20 μM peptide, 4 μM [3H]-AFC-val-ile-ser substrate): approximately 50%

Compound: N-[^3 H]-acetyl-S-all-trans-farnesyl-D-Cys-L-Val-L-Ile-L-Ser [D-AFC-val-ile-ser]
tetrapeptide cleaved (proteolysis) [8]: < 1%
substrate activity (in words) [7, 12]: AFC formation did not occur

Compound: N-[^3 H]acetyl-S-farnesyl-L-cysteinyl-L-valyl-L-isoleucyl-L-methionine [AFC--Val--Ile--Met (9)]
Km [7, 11]: 2.96 ± 0.35 µM
Vmax [7, 11]: 126.3 ± 4.7 pmol/min/mg
substrate activity (in words) [7, 12]: good substrate
Km [9]: 0.65 ± 0.08 µM
Vmax [9]: 1.96±0.07 nmol/(min-mg of protein)

Km [7, 12]: 4.8 ± 0.6 µM
Compound: N-acetyl-S-farnesyl-L-cysteine-L-val-L-ile-L-ser (Ac-C(Farnesyl)VIS) [substrate 1]
tetrapeptide cleaved (proteolysis) [8]: 54%
Vmax [7, 12]: 0.236±0.008 nmol/min/mg protein
substrate activity (in words) [7, 12]: substrates for the enzyme
